Reference: US12472185B2, “Methods for killing antibiotic tolerant bacteria” (THE PENN STATE RESEARCH FOUNDATION, priority 2020, dated 2025)

Columns and labels:
[1] = system: S. aureus exponentially-growing cells; experiment: Killing at one MIC in PBS, NPIMA compared with cisplatin; type: cell-based, Staphylococcus aureus; conditions: 3 hr
Excerpt: FIG. 7. NPIMA compared width cisplatin for killing Pseudomonas aeruginosa, Escherichia coli, and Staphylococcus aureus. Survival of exponentially-growing cells of P. aeruginosa PA14 (a), E. coli (b), and S. aureus (c) treated with one MIC of NPIMA (♦) and cisplatin (●) for 3 hr in PBS. DMSO (▴) and NaClO4 (*) were used as a negative controls. MIC, minimum inhibitory concentration; NPIMA, 5-nitro-3-phenyl-1H-indol-2-yl-methylamine hydrochloride.
(§1) For bacterial viability, cells were washed twice with 0.85% NaCl, resuspended in 1×PBS, and cell counts were determined via the drop assay (Donegan, Matyac, Seidler, & Porteous, 1991). For human cell viability, pre-cultured human cancer HT-29 cells were dispensed in 98 μl in 96-well plates with approximately 5,000 cells/well. NPIMA was added (2 μl) to produce concentrations of 5, 10, 100, and 200 μM. For controls, Triton X-100 (positive control) and DMSO (negative solvent control), were used, and the medium was used for background. Plates were incubated in a humidified incubator (37° C., 5% CO2) for 24 hr. Cell viability was determined via a cell counting kit (CCK-8 Kit, ab228554; Abcam), and cytotoxicity was determined via the lactate dehydrogenase (LDH) assay (LDH Assay Kit, MK401; Takara).

S. aureus cells = experiment: Survival of cells (drop assay); type: cell-based, Staphylococcus aureus; conditions: 200 μM
Protocol: FIG. 2. NPIMA eradicates Escherichia coli, Pseudomonas aeruginosa, and Staphylococcus aureus exponential cells. Survival after 6 hr for (a) E. coli BW25113 with NPIMA and 5-iodoindole at 100 μM, (b) P. aeruginosa PA14 with NPIMA and 5-iodoindole at 100 μM, and (c) S. aureus with NPIMA and 5-iodoindole at 200 μM. Asterisk indicates no viable cells detected. NPIMA, 5-nitro-3-phenyl-1H-indol-2-yl-methylamine hydrochloride.
as §1

P. aeruginosa = experiment: Lysis assays (total protein and DNA in supernatants); type: cell-based, Pseudomonas aeruginosa; conditions: 100 μM, 1 hr
Protocol: FIG. 5. NPIMA lyses Escherichia coli, Pseudomonas aeruginosa, and Staphylococcus aureus. Total protein (a) and DNA (b) found in supernatants as evidence of cell lysis after treatment of cells at a turbidity of 0.8 at 600 nm with 100 μM NPIMA after 1 hr for E. coli and P. aeruginosa and 6 hr for S. aureus. NPIMA, 5-nitro-3-phenyl-1H-indol-2-yl-methylamine hydrochloride.
Exponentially-growing E. coli BW25113 cells (turbidity 0.8 at 600 nm) were washed twice with 0.85% NaCl, resuspended in 1 ml of 1×PBS, and NPIMA (100 μM) was added for 1 hr for E. coli and P. aeruginosa and 6 hr for S. aureus with shaking at 250 rpm (0.1% DMSO was used as the negative control). Cell supernatants were collected after centrifuging at 6,500 g (4° C. for 15 min), and total protein was measured by the Bicinchoninic Acid (BCA) protein assay Kit (Prod #23227; Pierce). DNA in the supernatant (199 μl) was detected by adding 1 μl of Picogreen (P7589; Invitrogen) and incubating for 5 min at room temperature in the dark room. The fluorescence signal was read by a Tecan microplate reader (Infinite M200PRO) with 480 nm excitation and 520 nm emission by utilizing a calibration curved made with plasmid pEX18Ap at 0, 0.004, 0.008, 0.016, 0.063, 0.125, 0.25, and 0.5 ng/μl.

P. aeruginosa PA14 = experiment: LIVE/DEAD staining; type: cell-based, Pseudomonas aeruginosa; conditions: 100 μM, 1 hr
Protocol: FIG. 4. NPIMA lyses Escherichia coli, Pseudomonas aeruginosa, and Staphylococcus aureus. LIVE/DEAD staining of (a) E. coli BW25113 after 0.75 hr, (b) P. aeruginosa PA14 after 1 hr, and (c) S. aureus after 1 hr treatment with NPIMA at 100 μM. […] White arrows indicate lysed cells. Representative images are shown. Scale bar=[…]. NPIMA, 5-nitro-3-phenyl-1H-indol-2-ylmethylamine hydrochloride.
Cell viability after treating with NPIMA was determined using the using the LIVE/DEAD BacLight Bacterial Viability Kit (catalog number, L7012; Molecular Probes, Inc., Eugene, OR). The fluorescence signal was analyzed via a Zeiss Axioscope.A1 using excitation at 485 nm and emission at 530 nm for green fluorescence and using excitation at 485 nm and emission at 630 nm for red fluorescence.

E coli = experiment: Resistance test by daily propagation at 0.25 MIC; type: cell-based, Escherichia coli; conditions: 7 days at 0.25 MIC (25 μM), then 1 MIC (100 μM) overnight
Protocol: After 7 days, the sequentially-propagated E. coli cells were contacted with LB with 1 MIC of NPIMA (100 μM) and incubated overnight to allow any putative resistant cells to grow and increase the turbidity.

[2] = system: natural E. coli persister cells; experiment: Survival of naturally-occurring persister cells (ampicillin only); type: cell-based, Escherichia coli; conditions: NPIMA, compared with rifampicin-generated persisters
Protocol: FIG. 9. NPIMA kills naturally-occurring E. coli persister cells. Survival of E. coli with 5-iodoindole and solvent negative control (DMSO) also shown. Asterisk (*) indicates no viable cells were detected. The persister cells were harvested at stationary-phase of E. coli (turbidity of 6.0 at 600 nm) and non-persister cells were removed by treatment.
E. coli persister cells were prepared following our previous method (Kim, Yamasaki, et al., 2018; Kwan, Valenta, Benedik, & Wood, 2013). Exponentially-growing cells (turbidity of 0.8 at 600 nm) were treated with rifampicin (100 μg/ml for 30 min) to stop transcription, washed, and any remaining nonpersister cells were lysed by ampicillin in LB (100 μg/ml for 3 hr). Cells were harvested by centrifugation (17,000 g for 1 min) and washed with 1× phosphate-buffered saline buffer (PBS, 8 g NaCl, 0.2 g KCl, 1.15 g Na2HPO4, and 0.2 g KH2PO4 per 1,000 ml) twice to remove all possible carbon sources, then resuspended with 1×PBS. […]
For bacterial viability, cells were washed twice with 0.85% NaCl, resuspended in 1×PBS, and cell counts were determined via the drop assay (Donegan, Matyac, Seidler, & Porteous, 1991). […] Cell viability was determined via a cell counting kit (CCK-8 Kit, ab228554; Abcam), and cytotoxicity was determined via the lactate dehydrogenase (LDH) assay (LDH Assay Kit, MK401; Takara).

## Cl.NCc1[nH]c2ccc([N+](=O)[O-])cc2c1-c1ccccc1 [NPIMA, [(5-nitro-3-phenyl-1H-indol-2-yl)methyl]amine hydrochloride]
[1]
  effectiveness relative to cisplatin: less effective than cisplatin
S. aureus cells
  time to eradicate S. aureus cells: 3 h
P. aeruginosa
  increase in DNA released compared to DMSO alone: 1.19±0.09 fold
  total protein released compared to DMSO alone: 4.0±0.4 fold
P. aeruginosa PA14
  cell lysis seen by LIVE/DEAD staining (extracellular DNA): lysed
  cells killed (LIVE/DEAD): 100%
E coli
  resistance after propagation: all of the E. coli cells were killed
[2]
  killing of natural persisters (ampicillin treatment only): killed in an identical manner
